Experimental data from the NIST ThermoML archive (doi:10.1021/je700321s).

Test: xn = mol fraction of the nth substance listed
Conditions: Liquid, Vibrating tube method

CC(C)O [propan-2-ol] + O=C=O
Conditions	mass density [kg/m3]
308.11 K, 1814 kPa, x2 = 0.139	786.2
308.11 K, 2252 kPa, x2 = 0.139	786.8
308.11 K, 3003 kPa, x2 = 0.139	787.7
308.11 K, 3206 kPa, x2 = 0.139	787.9
308.11 K, 3427 kPa, x2 = 0.139	788.2
308.11 K, 3514 kPa, x2 = 0.2003	792.7
308.11 K, 3607 kPa, x2 = 0.139	788.4
308.11 K, 4006 kPa, x2 = 0.2003	793.4
308.11 K, 4089 kPa, x2 = 0.139	788.9
308.11 K, 4510 kPa, x2 = 0.2003	794
308.11 K, 5013 kPa, x2 = 0.139	789.9
308.11 K, 5028 kPa, x2 = 0.2003	794.7
308.11 K, 5503 kPa, x2 = 0.139	790.5
308.11 K, 5504 kPa, x2 = 0.2003	795.3
308.11 K, 6002 kPa, x2 = 0.6086	812.2
308.11 K, 6006 kPa, x2 = 0.2003	795.9
308.11 K, 6019 kPa, x2 = 0.139	791
308.11 K, 6221 kPa, x2 = 0.6086	813
308.11 K, 6400 kPa, x2 = 0.6086	813.7
308.11 K, 6517 kPa, x2 = 0.2003	796.5
308.11 K, 6518 kPa, x2 = 0.139	791.7
308.11 K, 6606 kPa, x2 = 0.6086	814.5
308.11 K, 6807 kPa, x2 = 0.6086	815.2
308.11 K, 6824 kPa, x2 = 0.7943	793.7
308.11 K, 7001 kPa, x2 = 0.7943	795.6
308.11 K, 7009 kPa, x2 = 0.139	792.2
308.11 K, 7019 kPa, x2 = 0.6086	815.9
308.11 K, 7029 kPa, x2 = 0.2003	797.2
308.11 K, 7203 kPa, x2 = 0.6086	816.7
308.11 K, 7206 kPa, x2 = 0.7943	797.4
308.11 K, 7400 kPa, x2 = 0.7943	799.2
308.11 K, 7401 kPa, x2 = 0.6086	817.4
308.11 K, 7512 kPa, x2 = 0.139	792.7
308.11 K, 7516 kPa, x2 = 0.2003	797.7
308.11 K, 7607 kPa, x2 = 0.6086	818.3
308.11 K, 7607 kPa, x2 = 0.7943	801.1
308.11 K, 7804 kPa, x2 = 0.6086	818.9
308.11 K, 7810 kPa, x2 = 0.7943	803
308.11 K, 8001 kPa, x2 = 0.2003	798.3
308.11 K, 8005 kPa, x2 = 0.6086	819.7
308.11 K, 8007 kPa, x2 = 0.7943	804.6
308.11 K, 8016 kPa, x2 = 0.139	793.3
308.11 K, 8197 kPa, x2 = 0.7943	806.2
308.11 K, 8209 kPa, x2 = 0.6086	820.4
308.11 K, 8414 kPa, x2 = 0.7943	807.8
308.11 K, 8511 kPa, x2 = 0.2003	798.9
308.11 K, 8530 kPa, x2 = 0.139	793.9
308.11 K, 8600 kPa, x2 = 0.6086	821.7
308.11 K, 8618 kPa, x2 = 0.7943	809.6
308.11 K, 8796 kPa, x2 = 0.7943	810.8
308.11 K, 8810 kPa, x2 = 0.6086	822.4
308.11 K, 8990 kPa, x2 = 0.139	794.3
308.11 K, 9000 kPa, x2 = 0.6086	823.1
308.11 K, 9017 kPa, x2 = 0.7943	812.5
308.11 K, 9019 kPa, x2 = 0.2003	799.5
308.11 K, 9101 kPa, x2 = 0.6086	823.3
308.11 K, 9200 kPa, x2 = 0.6086	823.8
308.11 K, 9203 kPa, x2 = 0.7943	813.9
308.11 K, 9400 kPa, x2 = 0.7943	815.3
308.11 K, 9498 kPa, x2 = 0.139	794.8
308.11 K, 9607 kPa, x2 = 0.7943	816.6
308.11 K, 9807 kPa, x2 = 0.7943	818
308.11 K, 9902 kPa, x2 = 0.7943	818.6
308.11 K, 10003 kPa, x2 = 0.2003	800.7
308.11 K, 10047 kPa, x2 = 0.2003	800.8
308.12 K, 4780 kPa, x2 = 0.4248	807.5
308.12 K, 5038 kPa, x2 = 0.4248	808.2
308.12 K, 5326 kPa, x2 = 0.4248	808.8
308.12 K, 5517 kPa, x2 = 0.4248	809.2
308.12 K, 6029 kPa, x2 = 0.4248	810.3
308.12 K, 6505 kPa, x2 = 0.4248	811.3
308.12 K, 6515 kPa, x2 = 0.4248	811.4
308.12 K, 6714 kPa, x2 = 0.4248	811.8
308.12 K, 7035 kPa, x2 = 0.4248	812.4
308.12 K, 7207 kPa, x2 = 0.4248	812.8
308.12 K, 7302 kPa, x2 = 0.9492	699.6
308.12 K, 7402 kPa, x2 = 0.9492	704.9
308.12 K, 7501 kPa, x2 = 0.4248	813.4
308.12 K, 7605 kPa, x2 = 0.9492	713.8
308.12 K, 7700 kPa, x2 = 0.4248	813.8
308.12 K, 7802 kPa, x2 = 0.9492	720.9
308.12 K, 8002 kPa, x2 = 0.9492	728
308.12 K, 8024 kPa, x2 = 0.4248	814.4
308.12 K, 8204 kPa, x2 = 0.9492	734.5
308.12 K, 8404 kPa, x2 = 0.9492	740.3
308.12 K, 8605 kPa, x2 = 0.9492	745.7
308.12 K, 8606 kPa, x2 = 0.4248	815.6
308.12 K, 8802 kPa, x2 = 0.4248	816
308.12 K, 8802 kPa, x2 = 0.9492	750.6
308.12 K, 9002 kPa, x2 = 0.4248	816.4
308.12 K, 9004 kPa, x2 = 0.9492	755.4
308.12 K, 9201 kPa, x2 = 0.9492	759.7
308.12 K, 9408 kPa, x2 = 0.9492	764
308.12 K, 9529 kPa, x2 = 0.4248	817.3
308.12 K, 9610 kPa, x2 = 0.9492	768
308.12 K, 9805 kPa, x2 = 0.9492	771.5
308.12 K, 9898 kPa, x2 = 0.4248	818
308.12 K, 10003 kPa, x2 = 0.9492	774.9
308.12 K, 10202 kPa, x2 = 0.9492	778
308.12 K, 10405 kPa, x2 = 0.9492	780.9
308.12 K, 10617 kPa, x2 = 0.9492	783.7
308.12 K, 10807 kPa, x2 = 0.9492	785.9
308.13 K, 7456 kPa, x2 = 0.9715	611.7
308.13 K, 7502 kPa, x2 = 0.9715	636.2
308.13 K, 7992 kPa, x2 = 0.9715	680.6
308.13 K, 8522 kPa, x2 = 0.9715	706.8
308.13 K, 8997 kPa, x2 = 0.9715	724.3
308.13 K, 9508 kPa, x2 = 0.9715	739.8
308.13 K, 10027 kPa, x2 = 0.9715	752.9
308.13 K, 10521 kPa, x2 = 0.9715	763.7
308.13 K, 11017 kPa, x2 = 0.9715	773.2
308.13 K, 11500 kPa, x2 = 0.9715	781.6
308.13 K, 12008 kPa, x2 = 0.9715	789.6
308.13 K, 12520 kPa, x2 = 0.9715	797.2
308.13 K, 13012 kPa, x2 = 0.9715	803.8
308.13 K, 13520 kPa, x2 = 0.9715	810.4
308.13 K, 14014 kPa, x2 = 0.9715	816.4
308.13 K, 14520 kPa, x2 = 0.9715	822.1
308.13 K, 15000 kPa, x2 = 0.9715	827.3
313.08 K, 7544 kPa, x2 = 0.7943	777.4
313.08 K, 7601 kPa, x2 = 0.7943	778.5
313.08 K, 7810 kPa, x2 = 0.7943	780.8
313.08 K, 8013 kPa, x2 = 0.7943	783
313.08 K, 8205 kPa, x2 = 0.7943	784.9
313.08 K, 8410 kPa, x2 = 0.7943	786.8
313.08 K, 8593 kPa, x2 = 0.7943	788.4
313.08 K, 8800 kPa, x2 = 0.7943	790.3
313.08 K, 8999 kPa, x2 = 0.7943	792.2
313.08 K, 9208 kPa, x2 = 0.7943	794
313.08 K, 9405 kPa, x2 = 0.7943	795.7
313.08 K, 9619 kPa, x2 = 0.7943	797.5
313.08 K, 9803 kPa, x2 = 0.7943	799
